The record followed here is US8980848B2, “Flavonoid dimers and their use” (The Hong Kong Polytechnic University, priority 2010, dated 2015).

The IC50 is the concentration that inhibits the measured activity by half. The term EC50 denotes the midpoint of the concentration-response curve. A word on the melting point: it is the temperature, or range, at which the solid turns liquid.

Read-outs that look alike come from different tables or passages of the source. A value given as a limit tells only on which side of the number the result lay.

One data set relates to PEM cells. The experiment in a line: Cytotoxicity, primary mouse peritoneal elicited macrophage (PEM). It is filed as cell-based. How it is done:
(§1) (a) Mouse Macrophage Raw 264.7 and Primary Mouse PEM Cells. The cytotoxicity assay of reference antileishmanial compounds and the compounds of this invention was performed against mouse macrophage cell line, Raw 264.7 and primary mouse PEM cells in order to calculate the therapeutic index (IC50 value for cytotoxicity of the compounds divided by IC50 value for antileishmanial activity of the compounds). The cells were grown in supplemented DMEM media in an atmosphere of 95% air with 5% CO2 at 37° C. In brief, Raw264.7 cells and PEM cells were seeded into 96-well flat bottom microtiter plate at 1×10^4cells and 2×10^4 cells per well in a final volume of 100 μL media, respectively. A graded dose of flavonoid dimers or antileishmanials was added into wells. The plate was incubated at 37° C. for 72 hrs at the atmosphere 5% CO2 in the air. The % of survivors was determined.

The next data set has as its system Ld39 amastigotes. Briefly: In vitro anti-amastigote activity, Ld39 amastigotes in mouse PEM.
Another data set concerns Lm50122 promastigotes. The experiment in a line: In vitro anti-promastigote activity, Lm50122. It is filed as cell-based, Leishmania major. The settings on record: read-out: Anti-promastigotes activity (IC50, μM) Lm50122. How it is done:
(§2) Cell Lines and Cell Culture. Promastigotes of Leishmania donovani (wild type LdAG83, pentamidine-resistant LdAG83-PentR50, and SSG-resistant Ld39) and Leishmania major [MHOM/IL/67/JERICHO II (Lm50122), from ATCC] were used in this study.
(§3) In Vitro Anti-Promastigote Activity. The viability of promastigotes was determined by the Cell Titer 96° Aqueous Assay (Promega) that employs a tetrazolium compound (MTS, 2-(4,5-Dimethylthiazol-2-yl-)-5-[3-(carboxymethoxy)phenyl]-2-(4-sulfophenyl)-2H-tetrazolium) and electron coupling reagent, phenazine methosulfate (PMS).^7 Promastigotes were seeded into 96-well flat bottom microtiter plate at 1×10^5 cells per well in a final volume of 100 μL medium and incubated with a series concentration of synthetic flavonoid dimers or known antileishmanials. The parasites were incubated at 27° C. for 72 hrs. Fresh solution of 2 mg/mL MTS and 0.92 mg/mL PMS were prepared in a ratio of 20:1 (MTS:PMS). After 72 hrs incubation, 10 μL of MTS:PMS mixture was added into each well of microtiter plate. The plate was then incubated at 27° C. for 4 hrs for color development. After 4 hrs incubation, the OD values were determined at 490 nm using automatic microtiter plate reader (Bio-Rad).

Another data set addresses Pgp (LCC6MDR cells) (Homo sapiens, UniProt P08183). The experiment in a line: Cell proliferation assay: Pgp-modulating activity, reversal of anticancer drug resistance in LCC6MDR cells. Conditions: for RF (Relative Fold), cpd at 0.5 μM: RF = (IC50 without modulator)/(IC50 with 0.5 μM modulator), paclitaxel; for RF (Relative Fold), cpd at 0.5 μM / EC50: LCC6MDR; for EC50: EC50 of compounds for reversing anticancer drug resistance (nM), Paclitaxel; for Therapeutic index: IC50 of compounds for L929/EC50 of compounds for lowering paclitaxel drug resistance.

The nature of data set [1]: Cytotoxicity of flavonoid dimers, L929 mouse fibroblast. It is filed as cell-based. Conditions: mouse, L929 fibroblast cells, IC50 of compound alone, 72 hrs, mouse fibroblast. The method in brief:
(§4)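 LCC6, LCC6MDR and L929 cells seeded at 1×10^4 cells/well and exposed to graded doses of flavonoid dimers. Incubation 72 hrs at 37° C., 5% CO2. Read-out: % survivors.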

For data set [2], the system named is Ld39 promastigotes (SSG-resistant). The experiment in a line: In vitro anti-promastigote activity, Ld39. It counts as cell-based, Leishmania donovani. The settings on record: read-out: Anti-promastigotes activity (IC50, μM) Ld39. How it is done:
as §2, §3

The test system of the next data set is Raw264.7 cells. The experiment in a line: Cytotoxicity, mouse macrophage Raw264.7. It counts as cell-based. Here is the method:
as §1

Data set [3] concerns LdAG83 promastigotes (wild type). Briefly: In vitro anti-promastigote activity, LdAG83. It is filed as cell-based, Leishmania donovani. The settings on record: read-out: Anti-promastigotes activity (IC50, μM) LdAG83. How it is done: as §2, §3
Data set [4] can be described thus: Tumor cell line cytotoxicity of flavonoid dimers, LCC6MDR. It is filed as cell-based, human. Conditions: human, LCC6MDR cells, IC50 of compound alone. The gist of the method:
as §4

Data set [5] can be described thus: Tumor cell line cytotoxicity of flavonoid dimers, LCC6. It counts as cell-based, human. Conditions: human, LCC6 cells, IC50 of compound alone. The method in brief: as §4
The subject of data set [6] is LdAG83PentR50 promastigotes (pentamidine-resistant). Briefly: microbe, parasite or virus in culture. It counts as cell-based, Leishmania donovani. The settings on record: 3 days at 27° C., MTS; read-out: Anti-promastigotes activity (IC50, μM) LdAG83PentR50. Here is the method: as §2
No pentamidine or sodium stibogluconate was added to the L. donovani wild type (LdAG83) and L. major wild type (Lm50122). The mouse macrophage cell line, Raw264.7, was used for the determination of the relative toxicity of the compounds of the invention. […] They were maintained at 37° C. in a humidified atmosphere with 5% CO2. The cells were split constantly after a confluent monolayer has been formed. To split cells, the plate was washed briefly with PBS, treated with 0.05% trypsin-EDTA and harvested by centrifugation.
as §3

Data set [7] in a line: Cytotoxicity over LCC6, LCC6MDR and L929 cell lines. It counts as cell-based, human, mouse. The settings on record: human, cancer lines LCC6, LCC6MDR and/or L929. How it is done: (b) Tumor Cell Line Cytotoxicity. The tumor cytotoxicity assays of flavonoid dimers were performed against LCC6, LCC6MDR and L929 cell lines. The cells were grown in supplemented DMEM media in an atmosphere of 95% air and 5% CO2 at 37° C. In brief, LCC6, LCC6MDR and L929 cells were seeded into 96-well flat bottom microtiter plate at 1×10^4 cells per well in a final volume of 100 μL media, respectively. A graded dose of flavonoid dimers was added into wells. The plate was incubated at 37° C. for 72 hrs at the atmosphere 5% CO2 in the air. The % of survivors was determined.

The mark [8] stands for this setting: Mus musculus, Macrophage, Table 7, cytotoxicity.
Where [9] appears, read: cytotoxicity, primary mouse macrophage, 72 hrs.
The mark [10] stands for this setting: Leishmania donovani, in Mus musculus, 72 h, read-out: Ld39 (IC50, mM).
Setting [11] is: mouse, LCC6MDR and L929 cell lines.

Sequence of Pgp (LCC6MDR cells) (P08183 whole entry): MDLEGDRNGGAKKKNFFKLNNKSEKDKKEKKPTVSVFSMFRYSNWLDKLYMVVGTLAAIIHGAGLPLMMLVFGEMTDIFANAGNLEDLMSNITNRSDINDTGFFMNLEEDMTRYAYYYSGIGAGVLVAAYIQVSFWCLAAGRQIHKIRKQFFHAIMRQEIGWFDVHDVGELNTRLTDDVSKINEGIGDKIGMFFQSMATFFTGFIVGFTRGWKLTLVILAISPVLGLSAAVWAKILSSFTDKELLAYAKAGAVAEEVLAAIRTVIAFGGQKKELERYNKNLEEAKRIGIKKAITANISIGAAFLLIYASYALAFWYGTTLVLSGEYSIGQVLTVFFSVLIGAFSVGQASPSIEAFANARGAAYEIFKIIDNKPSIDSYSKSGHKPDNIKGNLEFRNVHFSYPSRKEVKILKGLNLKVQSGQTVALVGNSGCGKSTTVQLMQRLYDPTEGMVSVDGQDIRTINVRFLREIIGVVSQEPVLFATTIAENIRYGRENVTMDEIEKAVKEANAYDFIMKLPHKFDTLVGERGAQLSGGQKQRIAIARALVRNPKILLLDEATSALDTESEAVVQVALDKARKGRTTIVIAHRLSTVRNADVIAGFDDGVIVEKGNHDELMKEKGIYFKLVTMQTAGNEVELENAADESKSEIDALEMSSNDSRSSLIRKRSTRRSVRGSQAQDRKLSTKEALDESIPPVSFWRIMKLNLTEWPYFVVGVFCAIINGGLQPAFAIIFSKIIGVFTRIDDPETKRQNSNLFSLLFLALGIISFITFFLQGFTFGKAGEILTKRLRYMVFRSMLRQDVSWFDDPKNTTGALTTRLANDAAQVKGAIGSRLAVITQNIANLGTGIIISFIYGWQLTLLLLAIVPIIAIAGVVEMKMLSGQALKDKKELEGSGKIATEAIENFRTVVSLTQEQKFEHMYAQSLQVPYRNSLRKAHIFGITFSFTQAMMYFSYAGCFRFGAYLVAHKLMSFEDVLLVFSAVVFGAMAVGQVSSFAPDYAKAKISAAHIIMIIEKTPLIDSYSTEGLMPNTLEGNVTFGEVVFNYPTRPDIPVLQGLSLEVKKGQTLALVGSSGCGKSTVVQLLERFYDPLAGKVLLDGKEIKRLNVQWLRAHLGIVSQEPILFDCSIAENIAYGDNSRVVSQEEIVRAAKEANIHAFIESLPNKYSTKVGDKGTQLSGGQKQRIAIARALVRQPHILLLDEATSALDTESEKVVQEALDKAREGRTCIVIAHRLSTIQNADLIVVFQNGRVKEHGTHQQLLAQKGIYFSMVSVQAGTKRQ
Procedure for Ld39 amastigotes: Peritoneal elicited macrophages (PEM) from mouse were obtained as previously described. A round cover slip (12 mm in diameter) was placed into each well of 24-well culture plate. Mouse macrophages were resuspended in supplemented DMEM media containing 10% heat inactivated fetal bovine serum (v/v), 100 U/mL penicillin and 100 μg/mL streptomycin and seeded into each well at a cell density of 1×10^5 cells per 500 μL. Macrophages were allowed to attach overnight and the non-adherent cells were removed by gentle washing twice with unsupplemented DMEM media. […] Non-internalized promastigotes were removed by washing with unsupplemented DMEM media for two times. Infected macrophages were further incubated in 500 μL supplemented DMEM media in the presence or absence of flavonoid dimers or known antileishmanials for 72 hrs at 37° C. After incubation, the cover slips were stained with Giemsa and the amastigotes inside each macrophage (100 macrophages per treatment) were counted under microscope. The percentage of macrophages infected and number of amastigotes per 100 macrophages was enumerated.
The % of infected macrophage and the number of amastigotes per 100 macrophages were counted by staining with Giemsa.
Procedure for Pgp (LCC6MDR cells): Cell Proliferation Assay. 6,000 cells of LCC6 or LCC6MDR and anticancer drugs (paclitaxel, vinblastine, vincristine, doxorubicin and mitoxantrone) were mixed with or without modulators to a final volume of 200 μL in each well of 96-well plates. […] The plates were then incubated for 5 days at 37° C. […] IC50 values were calculated from the dose-response curves of MTS assays (Prism 4.0).

In the case of `O=c1c(O)c(-c2ccc(O)c(O)c2)oc2cc(O)cc(O)c12` [Quercetin, quercetin], the results for the IC50 in the data set on PEM cells (setting [8]), in the data set with PEM cells (setting [9]) and in the data set with Ld39 amastigotes (setting [10]) were more than 100 µM, more than 100 µM and 6 ± 1.1 µM, respectively.
With `COC(=O)c1ccc(CN(CCOCCOc2ccc(-c3cc(=O)c4ccccc4o3)cc2)CCOCCOc2ccc(-c3cc(=O)c4ccccc4o3)cc2)cc1` [Compound 20, 1,13-Bis[4′-(4H-chromen-4-on-2-yl)phenyl]-N-(4-methoxycarbonylbenzyl)-1,4,10,13-tetraoxa-7-azamidecane], the IC50 was more than 100 µM with Lm50122 promastigotes (Leishmania major, 72 h); more than 100 µM in data set [2] (Leishmania donovani, 72 h); 45.7 ± 19.1 µM in the data set with Raw264.7 cells (Mus musculus, RAW264.7, 72 h); more than 100 µM in [3] (Leishmania donovani, 72 h). For the same molecule, the “RF (Relative Fold), cpd at 0.5 μM” value on Pgp (LCC6MDR cells) is listed as “(2.1)”. The IC50 at 72 h in data set [1] stood at 11.4 ± 4.4 µM; in data set [4], 64.8 ± 14.1 µM; in [5] it was 33.3 ± 10.8 µM.
`C[C@@H]1[C@H](O)[C@@H](C)/C=C/C=C/C=C/C=C/C=C/C=C/C=C/[C@H](O[C@@H]2O[C@H](C)[C@@H](O)[C@H](N)[C@@H]2O)C[C@@H]2O[C@](O)(C[C@@H](O)C[C@@H](O)[C@H](O)CC[C@@H](O)C[C@@H](O)CC(=O)O[C@H]1C)C[C@H](O)[C@H]2C(=O)O` [Amphotericin B, amphotericin B, reference compound]: the IC50 in the data set with Lm50122 promastigotes (3 days at 27° C., MTS) worked out at 0.34 ± 0.06 µM; in [2] (3 days at 27° C., MTS) it was 0.095 ± 0.02 µM; with PEM cells (setting [9]), 7.4 µM; in [6] it was 0.051 µM; with Raw264.7 cells (72 hrs), 12 µM; in [3] (3 days at 27° C., MTS), 0.09 ± 0.02 µM. In the data set on Ld39 amastigotes (read-out: IC50 against Ld39 amastigotes), the IC50 turned out to be 0.062 µM.
Turning to `COc1cccc2oc(-c3ccc(OCCOCCN(CCOCCOc4ccc(-c5cc(=O)c6c(OC)cccc6o5)cc4)C(=O)OC(C)(C)C)cc3)cc(=O)c12` [Compound 16d, 1,13-Bis[4′-((5-methoxy)-4H-chromen-4-on-2-yl)phenyl]-7-(tert-butyloxycarbonyl)-1,4,10,13-tetraoxa-7-azamidecane], on Pgp (LCC6MDR cells), the “RF (Relative Fold), cpd at 0.5 μM” value was “(14.9)”. Further, the IC50 at 72 h in data set [4] is 5.4 ± 0.5 µM; in [5] it was 4.6 ± 0.2 µM; in data set [7], less than 8 µM.
Consider `O=c1cc(-c2ccc(O)c(O)c2)oc2cc(O)cc(O)c12` [Luteolin, luteolin], for which the IC50 was 77.7 ± 7.7 µM in the data set with PEM cells (setting [8]), 77.7 ± 7.7 µM in the data set with PEM cells (setting [9]) and 7.7 ± 3.6 µM in the data set with Ld39 amastigotes (setting [10]).
Consider `O=c1cc(-c2ccc(OCCOCCN(CCOCCOc3ccc(-c4cc(=O)c5ccccc5o4)cc3)Cc3cc(F)c(F)c(F)c3)cc2)oc2ccccc12` [Compound 39, 1,13-Bis[4′-(4H-chromen-4-on-2-yl)phenyl]-7-(3,4,5-trifluorobenzyl)-1,4,10,13-tetraoxa-7-azamidecane], for which the IC50 at 72 h is more than 100 µM in [1], more than 100 µM in data set [4], more than 75 µM in data set [5] and more than 100 µM in data set [7] (setting [11]).
As to `O=c1cc(-c2ccc(OCCOCCN(CCOCCOc3ccc(-c4cc(=O)c5ccccc5o4)cc3)Cc3ccc([N+](=O)[O-])cc3)cc2)oc2ccccc12` [Compound 19, 1,13-Bis[4′-(4H-chromen-4-on-2-yl)phenyl]-N-(4-nitrobenzyl)-1,4,10,13-tetraoxa-7-azamidecane], the IC50 is more than 100 µM in the data set on Lm50122 promastigotes (Leishmania major, 72 h); more than 100 µM in [2] (Leishmania donovani, 72 h); 70.3 ± 9.7 µM with Raw264.7 cells (Mus musculus, RAW264.7, 72 h); more than 100 µM in [3] (Leishmania donovani, 72 h). For the same molecule, the EC50 on Pgp (LCC6MDR cells) was 189 ± 1 nM. For the same molecule, the Therapeutic index at Pgp (LCC6MDR cells) turned out to be 465.6. Besides, the IC50 at 72 h was 88 ± 6.1 µM in [1], more than 90 µM in [4], 86.8 ± 1.8 µM in data set [5] and more than 90 µM in data set [7] (setting [11]).
Regarding `O=C1c2ccccc2C(=O)N1CCN(CCOCCOc1ccc(-c2cc(=O)c3ccccc3o2)cc1)CCOCCOc1ccc(-c2cc(=O)c3ccccc3o2)cc1` [Compound 23c, 1,13-Bis[4′-(4H-chromen-4-on-2-yl)phenyl]-7-[2-(1,3-dioxo-1,3-dihydro-2H-isoindol-2-yl)ethyl]-1,4,10,13-tetraoxa-7-azamidecane], the “RF (Relative Fold), cpd at 0.5 μM” value at Pgp (LCC6MDR cells) is “(9.6)”. For the same molecule, the IC50 at 72 h was 17 ± 4.3 µM in data set [1], 4.9 ± 0.1 µM in [4], 8.6 ± 3.4 µM in data set [5] and 4.9 to 8.6 µM in data set [7] (setting [11]).
`O=c1cc(-c2ccc(OCCOCCN(CCOCCOc3ccc(-c4cc(=O)c5ccccc5o4)cc3)Cc3ccccc3F)cc2)oc2ccccc12` [Compound 36, 1,13-Bis[4′-(4H-chromen-4-on-2-yl)phenyl]-7-(2-fluorobenzyl)-1,4,10,13-tetraoxa-7-azamidecane] had a melting point of 82 to 84 °C. Moreover, on Pgp (LCC6MDR cells), the EC50 turned out to be 179 ± 44 nM and the Therapeutic index is given as more than 558.7. The IC50 at 72 h in [1] is more than 100 µM. This molecule registered an IC50 at 72 h in data set [4] of more than 100 µM. In data set [5], this molecule showed an IC50 at 72 h of more than 100 µM. For the same molecule, the half-inhibitory concentration (IC50) at 72 h in data set [7] (setting [11]) is more than 100 µM.
The molecule `O=c1cc(-c2ccc(OCCOCCN(CCOCCOc3ccc(-c4cc(=O)c5ccccc5o4)cc3)Cc3cccc(F)c3)cc2)oc2ccccc12` [Compound 37, 1,13-Bis[4′-(4H-chromen-4-on-2-yl)phenyl]-7-(3-fluorobenzyl)-1,4,10,13-tetraoxa-7-azamidecane] came in with a melting point of 91 to 93 °C. In addition, at Pgp (LCC6MDR cells), the EC50 was determined as 258 ± 103 nM and the Therapeutic index is given as more than 337.2. Besides, in data set [1], the IC50 at 72 h is more than 87 µM. For the same molecule, the IC50 at 72 h in data set [4] is more than 100 µM. Moreover, the IC50 at 72 h in data set [5] is more than 100 µM. This molecule gave an IC50 at 72 h in data set [7] (setting [11]) of more than 100 µM.
